Measurements reported in patent US20260365628A1, “SUBSTITUTED 3,4-DIHYDROQUINOLINONE INHIBITORS OF TSHR” (Septerna, Inc., priority 2022, published 2026).
pIC50: −log10 of the molar value.

Each compound was assayed against T1, hTSHR (Homo sapiens, UniProt P16473) (assay: hTSHR TR-FRET cAMP Assay (inhibition of M22-stimulated cAMP production)). Conditions: Expi293F Inducible cells stably expressing hTSHR; cAMP HTRF; stimulated with EC80 of anti-TSHR antibody M22; 15 min compound preincubation, 30 min at 37° C.; read-out: Activity (IC50 bins).
T1 construct: expressed in transfected cells
Format: cell-based
Outline: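 Readout was a cAMP HTRF ratio of 655/620 nm after lysis, scaled between the EC80 M22 signal (0% inhibition) and no-agonist vehicle (100%). Frozen induced Expi293F-hTSHR cells saw test compounds (0.5% DMSO) for 15 min at 37 °C before 30 min of M22 stimulation at EC80.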

T1 sequence (P16473 21-764): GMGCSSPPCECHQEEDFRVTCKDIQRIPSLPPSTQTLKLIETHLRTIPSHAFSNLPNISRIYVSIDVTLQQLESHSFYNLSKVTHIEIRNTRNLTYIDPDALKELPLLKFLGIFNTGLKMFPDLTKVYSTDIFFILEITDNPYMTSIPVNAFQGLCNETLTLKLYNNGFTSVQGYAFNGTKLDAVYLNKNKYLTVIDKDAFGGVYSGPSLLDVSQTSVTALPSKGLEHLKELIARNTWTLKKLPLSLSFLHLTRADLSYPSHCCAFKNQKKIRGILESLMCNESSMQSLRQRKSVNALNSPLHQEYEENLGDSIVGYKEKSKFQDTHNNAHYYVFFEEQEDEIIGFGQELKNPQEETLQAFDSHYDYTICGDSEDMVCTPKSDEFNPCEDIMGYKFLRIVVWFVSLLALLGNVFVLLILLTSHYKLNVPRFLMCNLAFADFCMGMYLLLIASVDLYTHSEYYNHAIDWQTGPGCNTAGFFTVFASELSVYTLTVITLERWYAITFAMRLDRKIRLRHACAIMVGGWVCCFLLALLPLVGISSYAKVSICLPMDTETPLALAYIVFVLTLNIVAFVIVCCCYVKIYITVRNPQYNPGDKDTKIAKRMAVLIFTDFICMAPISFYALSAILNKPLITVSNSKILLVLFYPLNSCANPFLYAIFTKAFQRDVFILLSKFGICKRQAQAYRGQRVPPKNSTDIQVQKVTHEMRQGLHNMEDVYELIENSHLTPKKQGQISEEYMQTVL

Row | pIC50 | Compound
1 | 6.00 to 7.00 | C[C@H]1Oc2cc(NC(=O)NC3(C)CCOCC3)ccc2N([C@@H](C)c2ccccc2)C1=O [Example 265, 1-((R)-2-methyl-3-oxo-4-((S)-1-phen-ylethyl)-3,4-dihydro-2H-benzo[b][1,4]oxazin-7-yl)-3-(4-methyltetrahydro-2H-pyran-4-yl)urea]
2 | 6.00 to 7.00 | C[C@H]1Oc2cc(NC(=O)NC(C)(C)C)c(C#N)cc2N(Cc2ccccc2)C1=O [Example 341, (R)-1-(4-benzyl-6-cyano-2-methyl-3-oxo-3,4-dihydro-2H-benzo[b][1,4]oxazin-7-yl)-3-(tert-butyl)urea]
3 | < 6.00 | COC[C@H]1Oc2cc(NC(=O)NC(C)(C)C)ccc2N(Cc2ccccc2)C1=O [Example 289, (R)-1-(4-benzyl-2-(methoxymethyl)-3-oxo-3,4-dihydro-2H-benzo[b][1,4]oxazin-7-yl)-3-(tert-butyl)urea]
4 | 6.00 to 7.00 | C[C@@H](c1ccccc1)n1c(=O)cnc2cc(NC(=O)NC(C)(C)C)c(C(F)(F)F)cc21 [Example 346, 3-tert-butyl-1-{2-oxo-1-[(1S)-1-phenylethyl]-7-(trifluoromethyl)quinoxalin-6-yl}urea]
5 | < 6.00 | Cc1nc2cc(NC(=O)NC(C)(C)C)ccc2n(Cc2ccccc2)c1=O [Example 272, 1-(1-benzyl-3-methyl-2-oxo-1,2-dihydroquinoxalin-6-yl)-3-(tert-butyl)urea]
6 | 6.00 to 7.00 | Cc1cccc(CN2C(=O)CCc3cc(NC(=O)NC(C)(C)C)ccc32)c1C#N [Example 53, 3-tert-butyl-1-{1-[(2-cyano-3-methylphenyl)methyl]-2-oxo-3,4-dihydroquinolin-6-yl}urea]
7 | 6.00 to 7.00 | C[C@@H](c1cccc(OC(F)(F)F)n1)n1c(=O)cnc2cc(NC(=O)CCc3cccc(C(F)(F)F)c3)ccc21 [Example 318, (S)—N-(2-oxo-1-(1-(6-(trifluoromethoxy)pyridin-2-yl)ethyl)-1,2-dihydroquinoxalin-6-yl)-3-(3-(trifluoromethyl)phenyl)propanamide]
8 | > 7.00 | C[C@H]1Oc2cc(NC(=O)NC(C)(C)C)c(C#N)cc2N([C@@H](C)c2ccccc2)C1=O [Example 366, 1-(tert-butyl)-3-((R)-6-cyano-2-methyl-3-oxo-4-((S)-1-phenylethyl)-3,4-dihydro-2H-benzo[b][1,4]oxazin-7-yl)urea]
9 | 6.00 to 7.00 | C[C@@H](c1cccc(OC(F)(F)F)c1)n1c(=O)cnc2cc(NC(=O)C3CCCC3)ccc21 [Example 315, (S)—N-(2-oxo-1-(1-(3-(trifluoromethoxy)phenyl)ethyl)-1,2-dihydroquinoxalin-6-yl)cyclopentanecarboxamide]
10 | > 7.00 | CC(C)(C)NC(=O)Nc1ccc2c(c1)CCC(=O)N2Cc1ccccc1C#N [Example 20, 1-(tert-butyl)-3-(1-(2-cyanobenzyl)-2-oxo-1,2,3,4-tetrahydroquinolin-6-yl)urea]
11 | < 6.00 | CC(c1ccc2cnn(CCC(F)(F)F)c2c1)n1c(=O)cnc2cc(NC(=O)NC(C)(C)C)ccc21 (stereo not drawn) [Example 249, 1-(tert-butyl)-3-(2-oxo-1-(1-(1-(3,3,3-trifluoropropyl)-1H-indazol-6-yl)ethyl)-1,2-dihydro-quinoxalin-6-yl)urea]
12 | > 7.00 | C[C@@H](c1cccc(OC(F)(F)F)c1)n1c(=O)cnc2cc(NC(=O)NC3(C)CCC3)ccc21 [Example 200, (S)-1-(1-methylcyclobutyl)-3-(2-oxo-1-(1-(3-(trifluoromethoxy)phenyl)ethyl)-1,2-dihydroquinoxalin-6-yl)urea]
13 | > 7.00 | CC(C)(C)NC(=O)Nc1ccc2c(c1)ncc(=O)n2Cc1ccccc1 [Example 68, 1-(1-benzyl-2-oxo-1,2-dihydroquinoxalin-6-yl)-3-(tert-butyl)urea]
14 | > 7.00 | Cc1cccc(CN2C(=O)COc3cc(NC(=O)NC(C)(C)C)ccc32)c1 [Example 40, 1-(tert-butyl)-3-(4-(3-methylbenzyl)-3-oxo-3,4-dihydro-2H-benzo[b][1,4]oxazin-7-yl)urea]
15 | < 6.00 | C[C@H]1Oc2cc(NC(=O)NC(C)(C)C)ccc2N([C@@H](C)c2cncc(C(F)(F)F)n2)C1=O (single isomer, unassigned) [Example 306]
